Experimental data: paper PMC10066365, “Nemacol is a small molecule inhibitor of C. elegans vesicular acetylcholine transporter with anthelmintic potential” (Nature Communications, 2023)
“And” between values parts separate entries of the source, which are not always exact repeats. Equal values may be shown once. Read-outs that look alike come from different tables or passages of the source.

Tests used:
[1] = tested on: Dirofilaria immitis L3/L4; test: Dirofilaria immitis L3/L4 motility assay (DiroImager, 72 h); conditions: Dirofilaria immitis L4
[2] = tested on: Pristionchus pacificus; test: Pristionchus pacificus motor disruption dose-response on solid media, 1 h; conditions: for EC50: Pristionchus pacificus, 1 h, read-out: P. pacificus motor disruption EC50; for mean % any phene: any phenotype (coiled, jerky-Unc or paralyzed) at one hour; for mean % any phene / mean % any phene (coiled, jerky-Unc or paralyzed): mean of three biological replicates; for rep 1 atypical locomotion / rep 1 coiled / rep 1 no phene / rep 1 paralyzed / rep 2 atypical locomotion / rep 2 coiled / rep 2 no phene / rep 2 paralyzed / rep 3 atypical locomotion / rep 3 coiled / rep 3 no phene / rep 3 paralyzed: count of 20 animals per trial, one hour; for mean % any phene (coiled, jerky-Unc or paralyzed): Pristionchus pacificus young adults
Method: Locomotor phenotype analyses were done in 24-well plates with 1 mL of MYOB substrate (27.5 g Trizma HCl, 12 g Trizma Base, 230 g bacto tryptone, 10 g NaCl, 0.4 g cholesterol (95%)) seeded with 25 µL of OP50 Escherichia coli on each well. Each compound was added to the MYOB substrate before pouring to achieve the desired final concentrations of 30 µM or 60 µM after diffusion through the media. Synchronized young adult worms are transferred into each well using a platinum wire pick. A Leica MZ75 stereomicroscope was used to visualize the movement of worms on the solid substrate. The specific dominant locomotor phenotype (i.e. ‘Punc’, ‘paralyzed’, ‘coiler’ or ‘wild-type locomotion’) was scored after the touch on the head with a platinum wire over a ~3–5 s of observation. […] Coiled animals were not scored as paralyzed despite sometimes not responding to light touch.

[3] = tested on: C. elegans; test: C. elegans motor phenotype scoring on solid media (Punc/jerky-unc, coiled, paralyzed), wild-type young adults; type: in vivo, Caenorhabditis elegans; conditions: for atypical locomotion (number of animals) / coiled (number of animals) / no phene (number of animals) / paralyzed (number of animals) / any phene: mean % fraction of young adults exhibiting any phenotype (coiled, jerky-Unc or paralyzed) / any phene, mean % fraction of young adults exhibiting any phenotype (coiled, jerky-Unc or paralyzed) / any phene (mean % fraction of young adults exhibiting any phenotype: coiled, jerky-Unc or paralyzed): one hour; for atypical locomotion (number of animals) / coiled (number of animals) / no phene (number of animals) / paralyzed (number of animals): young adults, 20 animals per trial; for any phene: mean % fraction of young adults exhibiting any phenotype (coiled, jerky-Unc or paralyzed) / any phene, mean % fraction of young adults exhibiting any phenotype (coiled, jerky-Unc or paralyzed) / any phene (mean % fraction of young adults exhibiting any phenotype: coiled, jerky-Unc or paralyzed): mean of three biological replicates; for EC50: Caenorhabditis elegans, read-out: C. elegans - motor disruption EC50
[4] = tested on: Dirofilaria immitis microfilariae; test: Dirofilaria immitis microfilariae immobility assay (DiroImager, 72 h); conditions: for % effect (motility), DIROIM MF: Dirofilaria immitis microfilariae
Method in brief: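 Motility read after 72 h drug exposure with an image-based high-throughput plate imager, 1% DMSO medium serving as negative control. Missouri-isolate microfilariae, roughly 250 per well, freshly purified and cultured in supplemented RPMI 1640.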

[5] = 3.75uM, single technical replicate
[6] = 15uM, single technical replicate
[7] = 60uM, single technical replicate
[8] = conc 3.75, observed at one hour
[9] = 3.75uM, single replicate counts

O=[N+]([O-])c1ccc(N2CCN(C3CCCCC3)CC2)cc1 [Nemacol-64]
% effect (motility), DIROIM L4 ([1]; 2 µM): 0% | % effect (motility), DIROIM L4 ([1]; 10 µM): 0% | % effect (motility), DIROIM L4 ([1]; 50 µM): 100% | EC50 [2]: 14.3 µM | mean % any phene ([2]; conc 3.75): 0% | rep 1 atypical locomotion ([2]; conc 3.75): 0 | rep 1 coiled ([2]; conc 3.75): 0 | rep 1 no phene ([2]; conc 3.75): 20 | rep 1 paralyzed ([2]; conc 3.75): 0 | rep 2 atypical locomotion ([2]; conc 3.75): 0 | rep 2 coiled ([2]; conc 3.75): 0 | rep 2 no phene ([2]; conc 3.75): 20 | rep 2 paralyzed ([2]; conc 3.75): 0 | rep 3 atypical locomotion ([2]; conc 3.75): 0 | rep 3 coiled ([2]; conc 3.75): 0 | rep 3 no phene ([2]; conc 3.75): 20 | rep 3 paralyzed ([2]; conc 3.75): 0 | mean % any phene ([2]; conc 15): 70.8333% | rep 1 atypical locomotion ([2]; conc 15): 10 and 14 | rep 1 no phene ([2]; conc 15): 7 and 5 | rep 1 paralyzed ([2]; conc 15): 0 | rep 2 atypical locomotion ([2]; conc 15): 14 and 12 | rep 2 no phene ([2]; conc 15): 5 and 8 | rep 2 paralyzed ([2]; conc 15): 0 | rep 3 atypical locomotion ([2]; conc 15): 15 and 12 | rep 3 coiled ([2]; conc 15): 2 and 1 | rep 3 paralyzed ([2]; conc 15): 0 | mean % any phene ([2]; conc 60): 100% | rep 1 atypical locomotion ([2]; conc 60): 2 and 1 | rep 1 coiled ([2]; conc 60): 8 and 12 | rep 1 no phene ([2]; conc 60): 0 | rep 1 paralyzed ([2]; conc 60): 10 and 7 | rep 2 atypical locomotion ([2]; conc 60): 0 | rep 2 coiled ([2]; conc 60): 9 and 11 | rep 2 no phene ([2]; conc 60): 0 | rep 2 paralyzed ([2]; conc 60): 11 and 9 | rep 3 coiled ([2]; conc 60): 10 and 11 | rep 3 no phene ([2]; conc 60): 0 | rep 3 paralyzed ([2]; conc 60): 7 and 8 | atypical locomotion (number of animals) [3, 5]: 18 and 13 and 2 and 10 and 6 | coiled (number of animals) [3, 5]: 2 and 5 and 16 and 1 and 3 | no phene (number of animals) [3, 5]: 0 and 2 and 1 and 8 and 11 | paralyzed (number of animals) [3, 5]: 0 and 2 and 1 | any phene: mean % fraction of young adults exhibiting any phenotype (coiled, jerky-Unc or paralyzed) ([3]; 3.75uM): 81.6667% | atypical locomotion (number of animals) [3, 6]: 11 and 10 and 4 and 3 and 16 and 14 | coiled (number of animals) [3, 6]: 9 and 8 and 15 and 14 and 3 and 2 | no phene (number of animals) [3, 6]: 0 and 2 | paralyzed (number of animals) [3, 6]: 0 and 2 and 1 and 3 | any phene: mean % fraction of young adults exhibiting any phenotype (coiled, jerky-Unc or paralyzed) ([3]; 15uM): 96.746% | atypical locomotion (number of animals) [3, 7]: 3 and 2 and 8 and 1 and 0 | coiled (number of animals) [3, 7]: 14 and 16 and 3 and 0 and 7 and 5 | no phene (number of animals) [3, 7]: 0 | paralyzed (number of animals) [3, 7]: 3 and 2 and 14 and 12 and 15 | any phene: mean % fraction of young adults exhibiting any phenotype (coiled, jerky-Unc or paralyzed) ([3]; 60uM): 100% | EC50 ([3]; any motor phenotype after 1 h on solid media, ± 95% CI): 1.6 ± 2.8 µM | % effect (motility), DIROIM MF ([4]; 0.016 µM): 0% | % effect (motility), DIROIM MF ([4]; 0.08 µM): 0% | % effect (motility), DIROIM MF ([4]; 0.4 µM): 0% | % effect (motility), DIROIM MF ([4]; 2 µM): 0% | % effect (motility), DIROIM MF ([4]; 10 µM): 40% | EC50 ([4]; Dirofilaria immitis, 72 h, read-out: Dirofilaria immitis filariae EC50): 11 µM

c1ccc(N2CCN(CC3CCCCC3)CC2)cc1 [Nemacol-12]
% effect (motility), DIROIM L4 ([1]; 2 µM): 6% | % effect (motility), DIROIM L4 ([1]; 10 µM): 0% | % effect (motility), DIROIM L4 ([1]; 50 µM): 5% | mean % any phene (coiled, jerky-Unc or paralyzed) [2, 8]: 0% | mean % any phene (coiled, jerky-Unc or paralyzed) ([2]; conc 15, observed at one hour): 38.3333% | mean % any phene (coiled, jerky-Unc or paralyzed) ([2]; conc 60, observed at one hour): 98.3333% | EC50 [2]: 17.3 ± 6.3 µM | any phene, mean % fraction of young adults exhibiting any phenotype (coiled, jerky-Unc or paralyzed) ([3]; 3.75uM): 16.1842% | atypical locomotion (number of animals) [3, 9]: 0 and 7 and 11 | coiled (number of animals) [3, 9]: 0 and 1 | no phene (number of animals) [3, 9]: 20 and 11 and 9 | paralyzed (number of animals) [3, 9]: 0 | any phene, mean % fraction of young adults exhibiting any phenotype (coiled, jerky-Unc or paralyzed) ([3]; 15uM): 39.1667% | atypical locomotion (number of animals) ([3]; 15uM, single replicate counts): 4 and 2 and 0 and 1 and 17 and 10 | coiled (number of animals) ([3]; 15uM, single replicate counts): 0 and 3 and 8 | no phene (number of animals) ([3]; 15uM, single replicate counts): 16 and 18 and 20 and 19 and 0 | paralyzed (number of animals) ([3]; 15uM, single replicate counts): 0 and 2 | any phene, mean % fraction of young adults exhibiting any phenotype (coiled, jerky-Unc or paralyzed) ([3]; 60uM): 84.1667% | atypical locomotion (number of animals) ([3]; 60uM, single replicate counts): 11 and 14 and 7 and 10 and 2 and 1 | coiled (number of animals) ([3]; 60uM, single replicate counts): 3 and 4 and 5 and 6 and 14 and 19 | no phene (number of animals) ([3]; 60uM, single replicate counts): 6 and 2 and 7 and 4 and 0 | paralyzed (number of animals) ([3]; 60uM, single replicate counts): 0 and 1 and 4 | EC50 ([3]; 1 h): 18.8 ± 17.5 µM | % effect (motility), DIROIM MF ([4]; 0.016 µM): 0% | % effect (motility), DIROIM MF ([4]; 0.08 µM): 0% | % effect (motility), DIROIM MF ([4]; 0.4 µM): 0% | % effect (motility), DIROIM MF ([4]; 2 µM): 0% | % effect (motility), DIROIM MF ([4]; 10 µM): 0%

O=C(C1CCC1)N1CCN(c2ccc(F)cc2)CC1 [Nemacol-18]
% effect (motility), DIROIM L4 ([1]; 2 µM): 5% | % effect (motility), DIROIM L4 ([1]; 10 µM): 0% | % effect (motility), DIROIM L4 ([1]; 50 µM): 10% | mean % any phene (coiled, jerky-Unc or paralyzed) [2, 8]: 3.333% | mean % any phene (coiled, jerky-Unc or paralyzed) ([2]; conc 15, observed at one hour): 3.333% | mean % any phene (coiled, jerky-Unc or paralyzed) ([2]; conc 60, observed at one hour): 15.8333% | EC50 [2]: > 60 µM | rep 1 atypical locomotion ([2]; conc 3.75): 0 | rep 1 coiled ([2]; conc 3.75): 0 | rep 1 no phene ([2]; conc 3.75): 20 | rep 1 paralyzed ([2]; conc 3.75): 0 | rep 2 atypical locomotion ([2]; conc 3.75): 0 | rep 2 coiled ([2]; conc 3.75): 0 | rep 2 no phene ([2]; conc 3.75): 20 | rep 2 paralyzed ([2]; conc 3.75): 0 | rep 3 atypical locomotion ([2]; conc 3.75): 0 | rep 3 coiled ([2]; conc 3.75): 0 | rep 3 no phene ([2]; conc 3.75): 19 | rep 3 paralyzed ([2]; conc 3.75): 1 | any phene (mean % fraction of young adults exhibiting any phenotype: coiled, jerky-Unc or paralyzed) ([3]; 3.75uM, third c14 line of each analog): 0% | any phene (mean % fraction of young adults exhibiting any phenotype: coiled, jerky-Unc or paralyzed) ([3]; 15uM, second c14 line of each analog): 10% | any phene (mean % fraction of young adults exhibiting any phenotype: coiled, jerky-Unc or paralyzed) ([3]; 60uM, first c14 line of each analog): 27.5% | EC50 ([3]; 1 h): > 60 µM | % effect (motility), DIROIM MF ([4]; 0.016 µM): 0% | % effect (motility), DIROIM MF ([4]; 0.08 µM): 0% | % effect (motility), DIROIM MF ([4]; 0.4 µM): 0% | % effect (motility), DIROIM MF ([4]; 2 µM): 0% | % effect (motility), DIROIM MF ([4]; 10 µM): 0%
